# Laboratory results as given in PMC5651055, “Effects of Resveratrol on the Structure and Catalytic Function of Bovine Liver catalase (BLC): Spectroscopic and Theoretical Studies” (Advanced Pharmaceutical Bulletin, 2017).
# pIC50: −log10 of the molar value.
# Target: T1, Bovine liver catalase (BLC) (Bos taurus, UniProt P00432)
# T1 construct: gene CAT; native homotetramer from bovine liver (Sigma-Aldrich)
# T1 sequence (P00432 2-527): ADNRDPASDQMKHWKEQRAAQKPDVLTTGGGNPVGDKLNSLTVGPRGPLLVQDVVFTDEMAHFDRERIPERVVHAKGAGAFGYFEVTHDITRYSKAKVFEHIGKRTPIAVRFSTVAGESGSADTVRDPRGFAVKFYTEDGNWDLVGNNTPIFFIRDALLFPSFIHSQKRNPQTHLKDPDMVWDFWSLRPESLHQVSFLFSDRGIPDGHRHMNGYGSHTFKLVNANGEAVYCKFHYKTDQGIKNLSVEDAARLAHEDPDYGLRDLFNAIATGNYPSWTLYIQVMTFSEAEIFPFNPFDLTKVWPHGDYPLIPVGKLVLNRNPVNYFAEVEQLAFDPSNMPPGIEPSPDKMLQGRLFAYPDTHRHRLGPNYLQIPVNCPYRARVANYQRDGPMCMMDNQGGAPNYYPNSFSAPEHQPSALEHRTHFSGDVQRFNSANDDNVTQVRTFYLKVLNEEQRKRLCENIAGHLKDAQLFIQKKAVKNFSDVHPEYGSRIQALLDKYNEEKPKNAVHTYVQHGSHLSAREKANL
# Assay: H2O2 decomposition at A240 with purified BLC; supported by fluorescence quenching (K =[…] ^-1 at […] °C, n = […])
# Type: biochemical
smiles,measurement,value
"Oc1ccc(/C=C/c2cc(O)cc(O)c2)cc1 [tRES, trans resveratrol]",pIC50,5.09
